Test results published in patent publication US20030149005A1, “24-sulfur-substituted analogs of 1alpha, 25-dihydroxy vitamin D3” (priority 2001, published 2003).
pIC50: −log10 of the molar value.

Legend:
[1] = target: T1, CYP27B1 (UniProt O15528); test: Assay of CYP1-alpha hydroxylase (transfected COS-1 cells); assay type: cell-based; settings: COS-1 cells transfected with CYP-1alpha hydroxylase cDNA, [3H-26,27]-25(OH)D3 substrate
T1 sequence (O15528 1-508): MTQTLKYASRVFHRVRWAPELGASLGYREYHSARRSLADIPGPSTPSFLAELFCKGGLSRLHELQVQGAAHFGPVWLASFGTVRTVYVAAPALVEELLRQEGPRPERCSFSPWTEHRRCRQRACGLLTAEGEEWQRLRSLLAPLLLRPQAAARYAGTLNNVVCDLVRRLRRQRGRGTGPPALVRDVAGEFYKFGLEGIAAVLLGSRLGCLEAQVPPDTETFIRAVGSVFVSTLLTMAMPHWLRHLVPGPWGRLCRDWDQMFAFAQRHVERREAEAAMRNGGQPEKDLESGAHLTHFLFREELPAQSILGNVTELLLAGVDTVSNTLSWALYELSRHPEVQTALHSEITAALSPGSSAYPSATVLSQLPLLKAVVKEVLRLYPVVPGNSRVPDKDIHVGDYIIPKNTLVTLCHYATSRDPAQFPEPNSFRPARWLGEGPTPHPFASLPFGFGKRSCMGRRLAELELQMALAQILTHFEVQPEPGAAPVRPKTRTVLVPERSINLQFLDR
Method: Assay of CYP1-Alpha Hydroxylase (Using Transfected COS-1 Cells)
1. COS-1 cells (50-80% confluent)
2. FuGene 6 Transfection Reagent
3. PcDNA vector containing CYP-1alpha hydroxylase cDNA (1 μg/μl)
5. DMEM Medium (serum-free)
(ii) Transfection Cocktail Preparation (The Amount Depends on How Many Wells Transfected)
1. To a sterile tube, add serum-free medium (100 μl per well), Then add FuGene 6 Reagent (3 μl per well). Tap gently to mix. Pay attention to the order.
2. Add DNA solution (1 μg per well) to the prediluted FuGene 6 Reagent from step 2
3. Gently tap the tube to mix the contents. […] Incubate for 15 min at room temperature (no more than 45 min).
1. Trypsinize Cos-1 cells, centrifuge cell suspension, suspend cells pellet in DMEM medium+10% FCS.
2. Dilute the cells suspension to 750,000 cell/ml (75 cell/square),
1. Add 1.7 ml DMEM medium+10 O %FCS to each well of 6 well plate.
2. Transfer the correct volume of the cell suspension (200 μl/well) to the transfection cocktail. Mix them gently
3. Add 0.3 ml of the mixture to each well. Make sure that the same amount cells are added to each well. Swirl the wells to ensure even dispersal.
4. Incubate the cells for 24 hours at 37° C., 5% CO2 until enzyme activity assay.
(B) Enzyme Activity Assay
1. Wash cells once with PBS. Be careful, don't disturb the attached cells
2. Add 0.55 ml medium (DMEM+1%BSA) each well.
3. Add 0.025 ml medium containing test compounds
4. Incubate the cells for 10 minutes
6. Incubate the cells for 2 hour.
7. Add 1.5 ml Methanol to stop reaction
8. Add internal standard.
9. Transfer the medium to labeled tube.
10. Add 0.75 ml dichloromethane, vortex and keep in room temperature for 15 minutes.
11. Add 0.75 ml dichloromethane and 0.75 ml saturated KCl
12. Vortex and centrifuge
13. Remove upper phase and dry the lower phase in Speed-Vac
14. Add 110 μl mobile phase, vortex and centrifuge for 5 min.
15. Transfer 105 μl to the insert in HPLC vial.
16. HPLC analysis conditions:
Solvent: Hexane/isopropanol/methanol (91/7/2)
Detector: UV detector and radioactive detector.

[2] = target: T2, CYP27A1 (Homo sapiens, UniProt Q02318); test: CYP27A1 enzyme assay; assay type: biochemical
T2 construct: fused on or other part: Possibly fused to adrenodoxin reductase and adrenodoxin, if the fusion enzyme of Dilworth et al. 1996 was used
T2 sequence (Q02318 34-531): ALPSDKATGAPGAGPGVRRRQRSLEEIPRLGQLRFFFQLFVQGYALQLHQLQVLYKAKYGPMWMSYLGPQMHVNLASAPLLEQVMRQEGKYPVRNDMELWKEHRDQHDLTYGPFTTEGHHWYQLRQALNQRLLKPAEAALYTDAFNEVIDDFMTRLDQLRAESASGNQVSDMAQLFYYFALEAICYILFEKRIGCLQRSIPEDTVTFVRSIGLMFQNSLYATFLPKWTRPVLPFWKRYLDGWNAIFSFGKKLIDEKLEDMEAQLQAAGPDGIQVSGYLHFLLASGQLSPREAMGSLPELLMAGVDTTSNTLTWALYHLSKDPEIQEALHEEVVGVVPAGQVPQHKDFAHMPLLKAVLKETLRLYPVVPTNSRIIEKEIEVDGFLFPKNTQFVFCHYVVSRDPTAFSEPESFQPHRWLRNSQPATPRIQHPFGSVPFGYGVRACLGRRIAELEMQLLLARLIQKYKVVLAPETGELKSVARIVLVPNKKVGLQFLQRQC
Text: Dilworth F J, Black S M, Guo Y D, Miller W L, Jones G. Construction of a P450c27 fusion enzyme: a useful tool for analysis of vitamin D3 25-hydroxylase (1996) Biochem J 320:267-271
Sawada N, Sakaki T, Ohta M, Inouye K. Metabolism of vitamin D (3) by human CYP27A1 (2000) Biochem Biophys Res Commun 273(3):977-84

[3] = Calcium excretion (hypercalcemia assay) in rats; assay type: in vivo; settings: for urinary calcium levels: concentration 20 fold greater than the concentration of calcitriol
Method: Compound I(a) was tested for its effect on calcium excretion and weight gain in rats using a protocol described in Posner et al. J. Med. Chem. 41, 3008-3014, 1998.

[4] = target: T3, CYP24 (Homo sapiens, UniProt Q07973); test: CYP24 enzyme assay (induced HPK1A-ras cells); assay type: cell-based; settings: [3H]-1,25(OH)2D3 substrate
T3 construct: When the HPK1A-ras cells are 80-90% confluent, add 1 μL 10^−5 M 1,25(OH)2D3 to 1 mL medium; endogenous in cells; host or cells: HPK1A-ras cells induced with 10^-8 M 1,25(OH)2D3
T3 sequence (Q07973 36-514): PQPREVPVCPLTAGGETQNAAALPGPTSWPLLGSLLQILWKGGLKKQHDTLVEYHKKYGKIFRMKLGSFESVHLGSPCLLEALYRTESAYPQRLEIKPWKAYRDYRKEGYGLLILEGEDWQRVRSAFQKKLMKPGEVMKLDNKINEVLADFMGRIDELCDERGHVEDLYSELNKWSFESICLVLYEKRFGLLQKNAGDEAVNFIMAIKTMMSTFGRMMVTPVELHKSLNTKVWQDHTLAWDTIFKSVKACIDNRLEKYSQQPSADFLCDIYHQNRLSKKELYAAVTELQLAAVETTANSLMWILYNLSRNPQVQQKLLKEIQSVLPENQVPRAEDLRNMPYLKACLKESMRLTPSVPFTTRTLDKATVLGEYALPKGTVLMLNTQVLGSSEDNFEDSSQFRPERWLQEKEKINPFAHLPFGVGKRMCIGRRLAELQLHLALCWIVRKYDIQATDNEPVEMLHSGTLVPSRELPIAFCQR
Method: CYP24 Enzyme Assay (Induced KPK1A-ras Cells)
(i) Material and Reagents:
Saturated KCl: KCl 30 g, H2O400 ml
1. Induction of HPK1A-ras cells (The day before assay)
When the HPK1A-ras cells are 80-90% confluent, add 1 μL 10^−5 M 1,25(OH)2D3 to 1 mL medium in the plate (final concentration is 10^−8 M).
2. Preparation of cell suspension
After 18 to 20 hours induction, remove the medium and wash the cell twice with PBS. Then tripsinize the cells from plate, centrifuge (2,000 rpm, 5 min) and suspend cells pellet in DMEM medium+1%BSA.
Count the cells and adjust cells density to 250,000/150 μL, add 150 μL cell suspension to each well in 48-well plate. (including 3 well as no cell control, and 3 well cells without drug or inhibitor as control).
3. Add 25 μL ketoconazole (final concentration 10^−5 M, 10^−6 M, 10^−7 M, 10^−1 M) or drugs into each designated well. Keep the plate in 37° C. for 10 min.
4. Preparation of substrate
Take certain amount of DMEM+1%BSA medium (25*Well number+200) μL to a tube, add certain amount of 3H-1,25(OH)2D3 (well number+2) μL and certain amount of 100 mM DPPD (well number/5) μL and mix them by vortex.
Add 25 mL substrate to each well, incubate the plate at 37° C. for 3 hour.
Add 25 mL substrate to counting plate (2 well) as a total count.
6. Lipid extraction and counting
Add 500 μL methanol to each well to stop the reaction, transfer them to tube
Add 250 μL dichloromethane and vortex.
Add 250 μL dichloromethane and 250 μL saturated KCl, and vortex.
Centrifuge at 4000 rpm for 5 min.
Transfer 100 μL of aqueous phase (upper phase) to counting plastic counting plate. Add 600 μL of scintillation fluid to each well. Count the plate in scintillation counter.
7. Calculation enzyme activity
CPM of cell control after subtraction of CPM of NCC is as 100% enzyme activity.
Enzyme activity=(CPM in test compounds well —CPM in NCC well)/(CPM in Cell control−CPM in NCC well)*100%

SMILES	pIC50 [1]	pIC50 [2]	pIC50 [4]	calcemic activity ([3]; calcium excretion protocol)	urinary calcium levels [3]	urinary calcium levels ([3]; listed as Ia)
C=C1/C(=C\C=C2/CCC[C@]3(C)[C@@H]([C@H](C)CCS(=O)(=O)c4ccccc4)CC[C@@H]23)C[C@@H](O)C[C@@H]1O [I(a)]	< 5.00	< 5.00	–	–	did not show an increase in urinary calcium levels	did not increase the levels of calcium in the urine
C[C@H](CCS(=O)(=O)c1ccccc1)[C@H]1CC[C@H]2/C(=C/C=C3C[C@@H](O)C[C@H](O)C3)CCC[C@]12C [I(u)]	–	–	6.80	strongly non-calcemic	–	–
C=C1/C(=C\C=C2/CCC[C@]3(C)[C@@H]([C@H](C)CCS(=O)(=O)c4ccc(C)cc4)CC[C@@H]23)C[C@@H](O)C[C@@H]1O [I(g)]	< 6.00	–	6.67	–	–	–
C=C1/C(=C\C=C2/CCC[C@]3(C)C([C@H](C)CCSC(C)(C)C)=CC[C@@H]23)C[C@@H](O)C[C@@H]1O [I(gg)]	5.07	–	6.33	–	–	–
C=C1/C(=C\C=C2/CCC[C@]3(C)[C@@H]([C@H](C)CCS(=O)(=O)C(C)C)CC[C@@H]23)C[C@@H](O)C[C@@H]1O [I(w)]	5.04	–	7.05	–	–	–

More lines, main results first:

pIC50 [1]	pIC50 [2]	pIC50 [4]	calcemic activity ([3]; calcium excretion protocol)	SMILES	urinary calcium levels [3]	urinary calcium levels ([3]; listed as Ia)
< 6.00	–	7.03	–	C=C1/C(=C\C=C2/CCC[C@]3(C)[C@@H]([C@H](C)CCS(=O)(=O)c4ccc(Cl)cc4)CC[C@@H]23)C[C@@H](O)C[C@@H]1O [I(e)]	–	–
< 6.00	–	7.04	–	C=C1/C(=C\C=C2/CCC[C@]3(C)[C@@H]([C@H](C)CCS(=O)(=O)c4ccc(Cl)c(Cl)c4)CC[C@@H]23)C[C@@H](O)C[C@@H]1O [I(i)]	–	–
< 5.00	–	6.66	–	C=C1/C(=C\C=C2/CCC[C@]3(C)[C@@H]([C@H](C)CCS(=O)(=O)C(C)(C)C)CC[C@@H]23)C[C@@H](O)C[C@@H]1O [I(v)]	–	–
